According to PubChem BioAssay (NCI):
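Abbreviation: GI50, concentration required for 50% inhibition of growth. Definition used: TGI = concentration required for complete inhibition of growth.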

Columns and labels:
Experiment in all cases: NCI-60 cell line screen, 384-well format
OVCAR-4 ovarian = test system: OVCAR-4 ovarian
SR leukemia = test system: SR leukemia
IGROV1 ovarian = test system: IGROV1 ovarian
OVCAR-3 ovarian = test system: OVCAR-3 ovarian
OVCAR-8 ovarian = test system: OVCAR-8 ovarian
MDA-MB-435 melanoma = test system: MDA-MB-435 melanoma
MCF7 breast = test system: MCF7 breast
NCI-H322M lung = test system: NCI-H322M lung
BT-549 breast = test system: BT-549 breast
HCT-116 colon = test system: HCT-116 colon
OVCAR-5 ovarian = test system: OVCAR-5 ovarian
HOP-62 NSCLC = test system: HOP-62 NSCLC
U251 glioblastoma = test system: U251 glioblastoma
COLO 205 colon = test system: COLO 205 colon
SNB-19 CNS = test system: SNB-19 CNS
MALME-3M melanoma = test system: MALME-3M melanoma
HL-60(TB) leukemia = test system: HL-60(TB) leukemia
SK-MEL-28 melanoma = test system: SK-MEL-28 melanoma
SF-295 CNS = test system: SF-295 CNS
LOX IMVI melanoma = test system: LOX IMVI melanoma
SK-OV-3 ovarian = test system: SK-OV-3 ovarian
KM12 colon = test system: KM12 colon
HS 578T breast = test system: HS 578T breast
CAKI-1 renal = test system: CAKI-1 renal
MDA-MB-231 breast = test system: MDA-MB-231 breast
NCI/ADR-RES ovarian = test system: NCI/ADR-RES ovarian
RXF 393 renal = test system: RXF 393 renal
NCI-H23 lung = test system: NCI-H23 lung
TK-10 renal = test system: TK-10 renal
ACHN renal = test system: ACHN renal
UACC-62 melanoma = test system: UACC-62 melanoma
SNB-75 CNS = test system: SNB-75 CNS
MDA-MB-468 breast = test system: MDA-MB-468 breast
T-47D breast = test system: T-47D breast
NCI-H522 lung = test system: NCI-H522 lung
MOLT-4 leukemia = test system: MOLT-4 leukemia
NCI-H460 NSCLC = test system: NCI-H460 NSCLC
SF-268 CNS = test system: SF-268 CNS
HCT-15 colon = test system: HCT-15 colon
M14 melanoma = test system: M14 melanoma
UACC-257 melanoma = test system: UACC-257 melanoma
HT29 colon = test system: HT29 colon
HCC-2998 colon = test system: HCC-2998 colon
A549 NSCLC = test system: A549 NSCLC
SK-MEL-5 melanoma = test system: SK-MEL-5 melanoma
PC-3 prostate = test system: PC-3 prostate
SF-539 CNS = test system: SF-539 CNS
RPMI-8226 leukemia = test system: RPMI-8226 leukemia
DU-145 prostate = test system: DU-145 prostate
HOP-92 NSCLC = test system: HOP-92 NSCLC
SN12C renal = test system: SN12C renal
EKVX NSCLC = test system: EKVX NSCLC
NCI-H226 lung = test system: NCI-H226 lung
A498 renal = test system: A498 renal

CC(C)(C)Cn1c(N)nc2ccc(-c3[nH]c(C(C)(C)C)nc3-c3ccc(F)cc3)nc21
GI50 (OVCAR-4 ovarian): 7.46 µM
TGI (OVCAR-4 ovarian): 20.3 µM
GI50 (SR leukemia): 2.63 µM
TGI (SR leukemia): 13.5 µM
GI50 (IGROV1 ovarian): 2.57 µM
TGI (IGROV1 ovarian): 12.4 µM
GI50 (OVCAR-3 ovarian): 9.69 µM
TGI (OVCAR-3 ovarian): 21.5 µM
GI50 (OVCAR-8 ovarian): 9.78 µM
TGI (OVCAR-8 ovarian): 21.8 µM
GI50 (MDA-MB-435 melanoma): 13.4 µM
TGI (MDA-MB-435 melanoma): 26.3 µM
GI50 (MCF7 breast): 6.64 µM
TGI (MCF7 breast): 19.3 µM
GI50 (NCI-H322M lung): 4.97 µM
TGI (NCI-H322M lung): 17.7 µM
GI50 (BT-549 breast): 12 µM
TGI (BT-549 breast): 24.5 µM
GI50 (HCT-116 colon): 6.38 µM
TGI (HCT-116 colon): 18.9 µM
GI50 (OVCAR-5 ovarian): 3.37 µM
TGI (OVCAR-5 ovarian): 13 µM
GI50 (HOP-62 NSCLC): 11.4 µM
TGI (HOP-62 NSCLC): 23.7 µM
GI50 (U251 glioblastoma): 6.13 µM
TGI (U251 glioblastoma): 18.6 µM
GI50 (COLO 205 colon): 16 µM
TGI (COLO 205 colon): 29.5 µM
GI50 (SNB-19 CNS): 11.9 µM
TGI (SNB-19 CNS): 24.3 µM
GI50 (MALME-3M melanoma): 4.26 µM
TGI (MALME-3M melanoma): 16.7 µM
GI50 (HL-60(TB) leukemia): 3.78 µM
TGI (HL-60(TB) leukemia): 10.4 µM
GI50 (SK-MEL-28 melanoma): 12.6 µM
TGI (SK-MEL-28 melanoma): 25.3 µM
GI50 (SF-295 CNS): 10.6 µM
TGI (SF-295 CNS): 22.6 µM
GI50 (LOX IMVI melanoma): 13.5 µM
TGI (LOX IMVI melanoma): 26.3 µM
GI50 (SK-OV-3 ovarian): 8.25 µM
TGI (SK-OV-3 ovarian): 21 µM
GI50 (KM12 colon): 5.24 µM
TGI (KM12 colon): 17.4 µM
GI50 (HS 578T breast): 11.4 µM
TGI (HS 578T breast): 23.6 µM
GI50 (CAKI-1 renal): 6.13 µM
TGI (CAKI-1 renal): 19.9 µM
GI50 (MDA-MB-231 breast): 11.7 µM
TGI (MDA-MB-231 breast): 24.1 µM
GI50 (NCI/ADR-RES ovarian): 3.76 µM
TGI (NCI/ADR-RES ovarian): 17.4 µM
GI50 (RXF 393 renal): 12.9 µM
TGI (RXF 393 renal): 25.6 µM
GI50 (NCI-H23 lung): 11.5 µM
TGI (NCI-H23 lung): 23.9 µM
GI50 (TK-10 renal): 3.02 µM
TGI (TK-10 renal): 14.6 µM
GI50 (ACHN renal): 1.9 µM
TGI (ACHN renal): 12.3 µM
GI50 (UACC-62 melanoma): 10.7 µM
TGI (UACC-62 melanoma): 22.7 µM
GI50 (SNB-75 CNS): 13.5 µM
TGI (SNB-75 CNS): 26.5 µM
GI50 (MDA-MB-468 breast): 2.93 µM
TGI (MDA-MB-468 breast): 15.5 µM
GI50 (T-47D breast): 9.88 µM
TGI (T-47D breast): 21.6 µM
GI50 (NCI-H522 lung): 5.97 µM
TGI (NCI-H522 lung): 18.9 µM
GI50 (MOLT-4 leukemia): 7.35 µM
TGI (MOLT-4 leukemia): 19.5 µM
GI50 (NCI-H460 NSCLC): 4.3 µM
TGI (NCI-H460 NSCLC): 16.2 µM
GI50 (SF-268 CNS): 11.8 µM
TGI (SF-268 CNS): 24.3 µM
GI50 (HCT-15 colon): 2.16 µM
TGI (HCT-15 colon): 4.75 µM
GI50 (M14 melanoma): 12.9 µM
TGI (M14 melanoma): 25.6 µM
GI50 (UACC-257 melanoma): 2.92 µM
TGI (UACC-257 melanoma): 7.71 µM
GI50 (HT29 colon): 2.33 µM
TGI (HT29 colon): 6.39 µM
GI50 (HCC-2998 colon): 3.6 µM
TGI (HCC-2998 colon): 14.4 µM
GI50 (A549 NSCLC): 9.53 µM
TGI (A549 NSCLC): 21.7 µM
GI50 (SK-MEL-5 melanoma): 3.7 µM
TGI (SK-MEL-5 melanoma): 15.7 µM
GI50 (PC-3 prostate): 10.2 µM
TGI (PC-3 prostate): 22.1 µM
GI50 (SF-539 CNS): 11.9 µM
TGI (SF-539 CNS): 24.4 µM
GI50 (RPMI-8226 leukemia): 2 µM
TGI (RPMI-8226 leukemia): 5.4 µM
GI50 (DU-145 prostate): 9.61 µM
TGI (DU-145 prostate): 21.6 µM
GI50 (HOP-92 NSCLC): 10.2 µM
TGI (HOP-92 NSCLC): 22 µM
GI50 (SN12C renal): 1.8 µM
TGI (SN12C renal): 14.7 µM
GI50 (EKVX NSCLC): 2.74 µM
TGI (EKVX NSCLC): 15.4 µM
GI50 (NCI-H226 lung): 13.1 µM
TGI (NCI-H226 lung): 25.8 µM
GI50 (A498 renal): 4.54 µM
TGI (A498 renal): 18.6 µM
